From ChEMBL document CHEMBL1201862, “PubChem BioAssay data set” (2004)
Calls of active or inactive are those of the source.

How the values were obtained:
[1] = target: T1, Zinc finger protein mex-5 (Caenorhabditis elegans, UniProt Q9XUB2); assay: potency of MEX-5 RNA-binding blockers – biochemical, C. elegans, fluorescence polarization, dose response (AID 1960)
T1 sequence (Q9XUB2 whole entry): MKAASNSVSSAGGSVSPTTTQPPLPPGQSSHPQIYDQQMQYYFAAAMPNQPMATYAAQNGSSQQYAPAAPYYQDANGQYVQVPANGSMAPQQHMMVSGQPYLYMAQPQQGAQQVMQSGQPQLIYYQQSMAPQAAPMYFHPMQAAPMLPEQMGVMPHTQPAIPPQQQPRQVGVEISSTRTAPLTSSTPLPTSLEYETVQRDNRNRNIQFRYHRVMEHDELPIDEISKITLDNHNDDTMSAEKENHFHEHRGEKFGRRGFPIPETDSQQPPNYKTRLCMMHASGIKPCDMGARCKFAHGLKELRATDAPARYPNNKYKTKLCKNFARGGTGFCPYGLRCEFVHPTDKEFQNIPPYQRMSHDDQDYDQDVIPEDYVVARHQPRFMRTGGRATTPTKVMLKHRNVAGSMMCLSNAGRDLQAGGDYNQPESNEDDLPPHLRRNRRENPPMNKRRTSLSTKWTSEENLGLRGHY

Insulin-degrading enzyme [2] = target: T2, Insulin-degrading enzyme (Homo sapiens, UniProt P14735); assay: cellular IDE activation of Abeta substrate cleavage – fluorescence polarization, HEK cells, dose response (AID 588439); type: functional, cell-based
T2 sequence (P14735 whole entry): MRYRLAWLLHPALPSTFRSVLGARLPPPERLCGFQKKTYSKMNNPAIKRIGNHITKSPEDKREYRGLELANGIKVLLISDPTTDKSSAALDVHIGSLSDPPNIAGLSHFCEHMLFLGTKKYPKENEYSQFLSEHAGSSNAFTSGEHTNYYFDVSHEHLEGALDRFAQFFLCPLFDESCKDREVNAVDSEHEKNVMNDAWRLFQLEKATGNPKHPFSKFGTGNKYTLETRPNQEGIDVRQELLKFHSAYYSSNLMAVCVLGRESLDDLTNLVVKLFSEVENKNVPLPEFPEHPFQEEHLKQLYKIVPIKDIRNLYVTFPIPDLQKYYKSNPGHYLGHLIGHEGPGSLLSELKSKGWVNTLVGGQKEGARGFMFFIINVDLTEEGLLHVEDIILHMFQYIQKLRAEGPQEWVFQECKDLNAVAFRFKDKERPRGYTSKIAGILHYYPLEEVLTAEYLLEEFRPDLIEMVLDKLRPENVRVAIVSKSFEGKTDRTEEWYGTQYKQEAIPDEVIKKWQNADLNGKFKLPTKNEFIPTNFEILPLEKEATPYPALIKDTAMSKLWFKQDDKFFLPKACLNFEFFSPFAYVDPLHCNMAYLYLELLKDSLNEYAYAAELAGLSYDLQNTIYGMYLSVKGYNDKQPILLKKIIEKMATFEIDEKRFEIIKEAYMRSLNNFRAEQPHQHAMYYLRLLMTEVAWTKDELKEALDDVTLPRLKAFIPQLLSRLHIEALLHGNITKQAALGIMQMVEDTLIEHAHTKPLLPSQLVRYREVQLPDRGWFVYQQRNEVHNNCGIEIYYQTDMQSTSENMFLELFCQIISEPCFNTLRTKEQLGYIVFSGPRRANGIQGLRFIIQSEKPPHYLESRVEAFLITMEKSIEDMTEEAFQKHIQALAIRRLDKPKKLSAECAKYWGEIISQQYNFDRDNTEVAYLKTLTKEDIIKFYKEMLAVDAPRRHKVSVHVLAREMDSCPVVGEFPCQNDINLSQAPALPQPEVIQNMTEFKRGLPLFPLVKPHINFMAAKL

[3] = target: T3, RNA-binding protein pos-1 (Caenorhabditis elegans, UniProt G5EF15); assay: disruptors of C. elegans POS-1 RNA interaction – biochemical, fluorescence polarization, dose response (AID 1964);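 further: purified POS-1 fused to maltose binding protein made in E. coli; potency of compounds blocking POS-1 binding to fluorescent RNA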
T3 sequence (G5EF15 whole entry): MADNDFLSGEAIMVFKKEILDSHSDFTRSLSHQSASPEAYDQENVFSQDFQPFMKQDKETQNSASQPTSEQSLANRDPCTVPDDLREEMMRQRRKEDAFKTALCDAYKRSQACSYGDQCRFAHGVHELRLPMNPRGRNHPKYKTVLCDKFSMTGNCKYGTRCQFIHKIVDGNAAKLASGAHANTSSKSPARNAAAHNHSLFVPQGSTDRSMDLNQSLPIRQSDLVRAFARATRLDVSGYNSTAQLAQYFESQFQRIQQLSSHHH

H4 = assay: Luminescence Cell-Based Dose Response HTS to Identify Activators of 5'UTR Stem-Loop Driven Prion Protein mRNA Translation in H4 Neuroglioblastoma Cells. [Related pubchem assays: 1829 (Project Summary), 1814 (Primary HTS)]; type: functional; settings: Homo sapiens
INS1 = assay: INS-1E survival protection against cytokine death – cell-based, luminescence, retest, dose response (AID 449756); type: functional; settings: Rattus norvegicus;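 further: cell death triggered by IL-1 beta plus TNF-alpha plus IFN-gamma mixture; protective hits raise ATP signal compared with cytokine alone wells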
Insulin-degrading enzyme [4] = target: T2, Insulin-degrading enzyme; assay: recombinant IDE activation, cell-free – biochemical, fluorescence polarization, counter-screen for IDE activator project, dose response (AID 588681)
[5] = Luminescence Cell-Based Dose Response HTS to Identify Activators of Luciferase Translation or Activity in H4 […] Cells. [Related pubchem assays: 1829 (Project Summary), 1814 (Primary HTS)]; type: functional
HEK293 [6] = assay: membrane integrity loss in HEK cells – cell-based, fluorescence, cytotoxicity control for IDE activator project, dose response (AID 588440); type: functional; settings: Homo sapiens;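 further: cytotoxicity by LDH release measuring loss of membrane integrity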
HEK293 [7] = assay: optical interference in Abeta FP readout, dose response, artefact control for IDE activator project, biochemical, fluorescence polarization (AID 588442); type: functional, cell-based; settings: Homo sapiens
[8] = Luminescence Cell-Based Dose Confirmation HTS to Identify Activators of 5'UTR Stem-Loop Driven Alpha-Synuclein mRNA Translation in H4 Neuroglioblastoma Cells. [Related pubchem assays: 1829 (Project Summary), 1814 (Primary HTS)]; type: functional
BJ [9] = assay: BJ-TERT-LT-ST fibroblast viability loss – cell-based, RAS-independent, luminescence, dose response (AID 1935); type: functional; settings: Homo sapiens;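 further: BJ fibroblasts immortalized with TERT plus LT and ST oncogenes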
[10] = target: Sphingosine 1-phosphate receptor 2 (Homo sapiens, UniProt O95136); assay: Dose Response Cell Based Assay for Antagonists of the S1P2 Receptor. [Related pubchem assays: 856, 736 ]; type: functional
Sphingosine 1-phosphate receptor 2, sequence (O95136 whole entry): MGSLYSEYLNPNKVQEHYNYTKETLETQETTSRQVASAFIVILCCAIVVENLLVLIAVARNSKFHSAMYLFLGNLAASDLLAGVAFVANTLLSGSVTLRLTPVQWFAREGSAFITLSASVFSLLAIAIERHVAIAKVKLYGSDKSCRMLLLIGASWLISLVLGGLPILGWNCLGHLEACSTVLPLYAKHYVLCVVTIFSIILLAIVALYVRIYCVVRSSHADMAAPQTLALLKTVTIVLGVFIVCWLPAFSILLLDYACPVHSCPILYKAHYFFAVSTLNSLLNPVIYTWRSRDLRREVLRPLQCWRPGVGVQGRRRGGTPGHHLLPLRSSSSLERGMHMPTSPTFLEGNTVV

[11] = target: DNA dC->dU-editing enzyme APOBEC-3G (Homo sapiens, UniProt Q9HC16); assay: Dose Response confirmation of small molecule APOBEC3G DNA Deaminase Inhibitors via a fluorescence-based single-stranded DNA deaminase assay. [Related pubchem assays (depositor defined):AID493012, AID493028]; type: functional
DNA dC->dU-editing enzyme APOBEC-3G, sequence (Q9HC16 whole entry): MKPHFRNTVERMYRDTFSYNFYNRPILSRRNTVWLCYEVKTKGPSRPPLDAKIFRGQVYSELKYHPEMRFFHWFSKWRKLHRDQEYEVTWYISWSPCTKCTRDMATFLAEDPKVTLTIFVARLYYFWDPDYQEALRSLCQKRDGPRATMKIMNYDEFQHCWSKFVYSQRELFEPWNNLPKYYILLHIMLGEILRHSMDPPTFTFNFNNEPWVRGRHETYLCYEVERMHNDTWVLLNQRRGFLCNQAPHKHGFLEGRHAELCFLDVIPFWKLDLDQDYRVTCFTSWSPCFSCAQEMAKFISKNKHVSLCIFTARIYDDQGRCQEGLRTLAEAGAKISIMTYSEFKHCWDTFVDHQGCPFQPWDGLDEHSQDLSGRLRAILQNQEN

[12] = target: T4, Mannose-6-phosphate isomerase (Homo sapiens, UniProt P34949); assay: MPI inhibition at elevated mannose 6-phosphate – biochemical, fluorescence intensity, high mannose 6-phosphate, primary screen (AID 1220)
T4 sequence (P34949 whole entry): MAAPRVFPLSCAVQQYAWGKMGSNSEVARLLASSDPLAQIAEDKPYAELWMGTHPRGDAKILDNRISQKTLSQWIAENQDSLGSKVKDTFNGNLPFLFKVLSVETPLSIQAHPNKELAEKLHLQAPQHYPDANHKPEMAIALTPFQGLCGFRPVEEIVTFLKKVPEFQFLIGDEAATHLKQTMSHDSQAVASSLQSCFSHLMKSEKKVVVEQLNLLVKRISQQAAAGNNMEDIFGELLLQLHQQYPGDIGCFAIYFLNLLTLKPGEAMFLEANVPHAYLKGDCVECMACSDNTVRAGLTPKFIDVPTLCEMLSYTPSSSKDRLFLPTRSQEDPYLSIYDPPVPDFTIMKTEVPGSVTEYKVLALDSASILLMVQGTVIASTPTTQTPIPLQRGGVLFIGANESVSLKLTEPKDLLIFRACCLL

BJ [13] = assay: cells; type: functional, cell-based; settings: Homo sapiens
BJ [14] = assay: growth inhibition of engineered Ras-driven BJ cells – cell-based, alamar blue fluorescence, cherrypicked samples, dose response (AID 2631); type: functional; settings: Homo sapiens;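 further: confirmatory dose-response assay in RAS-dependent BJ fibroblasts engineered with TERT, LT and ST, with cytotoxicity read by fluorescence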
[15] = target: DNA dC->dU-editing enzyme APOBEC-3A (Homo sapiens, UniProt P31941); assay: A3A deaminase inhibition for selectivity – biochemical, dose response (AID 504722); type: functional
DNA dC->dU-editing enzyme APOBEC-3A, sequence (P31941 whole entry): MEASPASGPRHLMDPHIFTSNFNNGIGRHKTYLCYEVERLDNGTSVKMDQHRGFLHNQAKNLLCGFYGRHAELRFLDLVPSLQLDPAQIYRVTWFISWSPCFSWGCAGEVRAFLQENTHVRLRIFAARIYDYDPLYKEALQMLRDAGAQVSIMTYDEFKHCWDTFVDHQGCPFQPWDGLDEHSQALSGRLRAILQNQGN

[16] = DRD fibroblast viability loss – cell-based, non-viral oncogenic, luminescence, dose response (AID 1934); type: functional; settings: Homo sapiens
BJ [17] = assay: BJ-TERT fibroblast viability loss – cell-based, RAS-independent, luminescence, dose response (AID 1933); type: functional; settings: Homo sapiens
CHO = CHO cell viability loss, potency – luminescence, cytotoxicity control for TLR9-MyD88 binding inhibitor project, dose response (AID 588339); type: functional, cell-based, hamster; settings: Cricetulus griseus;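 further: CHO cells stably coexpressing TLR9 and MyD88 fusions from primary screen; compound exposure lasted 48 hours before viability readout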
Cytochrome P450 3A4 = Cytochrome P450 3A4 (Homo sapiens, UniProt P08684);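 further: CYP3A4 tested as one member of a cytochrome P450 panel screen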
Cytochrome P450 3A4, sequence (P08684 whole entry): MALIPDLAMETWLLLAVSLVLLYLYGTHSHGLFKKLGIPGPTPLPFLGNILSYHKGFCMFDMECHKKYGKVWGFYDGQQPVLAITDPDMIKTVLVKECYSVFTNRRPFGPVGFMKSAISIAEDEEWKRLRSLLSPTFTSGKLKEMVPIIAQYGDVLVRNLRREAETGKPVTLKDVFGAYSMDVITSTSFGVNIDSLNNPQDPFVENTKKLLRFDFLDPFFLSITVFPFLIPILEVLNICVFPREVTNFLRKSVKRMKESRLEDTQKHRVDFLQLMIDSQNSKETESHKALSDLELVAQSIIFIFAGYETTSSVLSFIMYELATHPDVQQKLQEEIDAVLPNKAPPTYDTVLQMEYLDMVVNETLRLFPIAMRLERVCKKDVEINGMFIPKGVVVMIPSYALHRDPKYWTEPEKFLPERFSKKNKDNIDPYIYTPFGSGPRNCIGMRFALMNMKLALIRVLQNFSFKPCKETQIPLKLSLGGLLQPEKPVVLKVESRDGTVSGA

Beta Lactamase = Beta Lactamase (Pseudomonas aeruginosa, UniProt Q932Y6); assay: BLA reporter interference, concentration series – BLA reporter cells, FRET fluorescence, artefact control for TLR9-MyD88 binding inhibitor project, dose response (AID 588341); type: cell-based;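 further: cell based assay in CHO-K1 cells stably expressing beta-lactamase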
Beta Lactamase, sequence (Q932Y6 whole entry): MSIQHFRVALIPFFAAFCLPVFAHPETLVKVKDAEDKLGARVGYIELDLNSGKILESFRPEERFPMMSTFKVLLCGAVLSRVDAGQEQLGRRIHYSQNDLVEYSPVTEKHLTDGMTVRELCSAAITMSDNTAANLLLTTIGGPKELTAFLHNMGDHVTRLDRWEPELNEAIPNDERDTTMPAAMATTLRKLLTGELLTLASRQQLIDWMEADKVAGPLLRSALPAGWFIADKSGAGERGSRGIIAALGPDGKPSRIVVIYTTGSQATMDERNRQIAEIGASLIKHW

Protein Rev = target: T5, Protein Rev (Human immunodeficiency virus type 1 group M subtype B (isolate HXB2)(HIV-1), UniProt P04618); assay: blockers of HIV Rev/RRE RNA complex – biochemical, fluorescence polarization, HIV-1, dose response (AID 434976); design: species or system Human immunodeficiency virus 1
T5 sequence (P04618 whole entry): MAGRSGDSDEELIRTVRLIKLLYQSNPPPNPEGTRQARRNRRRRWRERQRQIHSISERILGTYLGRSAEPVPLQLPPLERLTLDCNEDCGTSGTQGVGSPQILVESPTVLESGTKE

[18] = target: T6, Female germline-specific tumor suppressor gld-1 (Caenorhabditis elegans, UniProt Q17339); assay: blockers of GLD-1/TGE RNA complex formation – biochemical, fluorescence polarization, C. elegans, dose response (AID 2802);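 further: fluorescence polarization of labeled TGE RNA bound by purified gld-1 protein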
T6 sequence (Q17339 whole entry): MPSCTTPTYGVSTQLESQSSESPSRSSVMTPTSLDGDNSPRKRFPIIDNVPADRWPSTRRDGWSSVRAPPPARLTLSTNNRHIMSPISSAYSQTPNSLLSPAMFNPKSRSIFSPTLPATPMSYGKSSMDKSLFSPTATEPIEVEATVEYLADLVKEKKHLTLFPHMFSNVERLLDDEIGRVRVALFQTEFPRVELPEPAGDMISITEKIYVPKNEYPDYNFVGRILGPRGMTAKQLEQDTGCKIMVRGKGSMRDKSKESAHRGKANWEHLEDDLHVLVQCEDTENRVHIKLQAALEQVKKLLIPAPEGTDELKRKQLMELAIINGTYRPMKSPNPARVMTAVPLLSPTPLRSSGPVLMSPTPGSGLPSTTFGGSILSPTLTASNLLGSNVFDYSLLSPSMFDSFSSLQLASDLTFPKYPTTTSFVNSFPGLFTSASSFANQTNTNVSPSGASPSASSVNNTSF

[19] = Luminescence Cell-Based Dose Retest to Confirm Inhibitors of Cancer Stem Cells. [Related pubchem assays (depositor defined):AID2717, AID2721]; type: functional; settings: Homo sapiens
[20] = target: Latent membrane protein 1 (Human herpesvirus 4 (strain B95-8), UniProt P03230); assay: LMP1 TES1 pathway selectivity over dsRED control – imaging, HEK293T, dual-color eGFP/dsRED, cherry-picks, selectivity assay for LMP1 NF-kB inhibitor project, dose response (AID 588398); type: functional, cell-based
Latent membrane protein 1, sequence (P03230 whole entry): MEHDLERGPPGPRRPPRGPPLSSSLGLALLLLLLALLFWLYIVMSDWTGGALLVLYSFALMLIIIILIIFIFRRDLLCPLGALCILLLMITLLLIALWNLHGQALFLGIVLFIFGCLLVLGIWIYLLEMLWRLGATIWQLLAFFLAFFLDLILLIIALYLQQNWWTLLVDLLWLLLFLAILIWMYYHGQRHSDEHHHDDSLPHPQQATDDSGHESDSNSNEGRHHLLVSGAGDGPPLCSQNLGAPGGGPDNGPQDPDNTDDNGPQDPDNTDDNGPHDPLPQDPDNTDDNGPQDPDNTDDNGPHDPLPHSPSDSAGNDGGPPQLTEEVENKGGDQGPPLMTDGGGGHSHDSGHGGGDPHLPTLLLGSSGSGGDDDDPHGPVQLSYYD

HEK293 [21] = assay: EBV LMP1 TES2 canonical NF-kB signalling blockers – cell-based, HEK293, luciferase, cherry-pick, dose response (AID 588343); type: functional; settings: Homo sapiens

Cc1ccc(NNC2=C3N=NN=C3C=CC2=O)cc1
EC50 [1]: 2.99 µM (active) | EC50 (Insulin-degrading enzyme [2]): 0.891 µM (active) | EC50 [3]: 22.4 µM (active) | EC50 (H4): > 120 µM (not active) | AC50 (INS1): 5.05 µM (active) | EC50 (Insulin-degrading enzyme [4]): 1.32 µM (active) | EC50 [5]: 50.3 µM (active) | IC50 (HEK293 [6]): > 89.3 µM (inactive) | EC50 (HEK293 [7]): 0.659 µM (active) | EC50 [8]: 0.399 µM (active)

CC1=C/C(=N\OS(=O)(=O)c2ccccc2)C=CC1=O
EC50 (BJ [9]): 4.43 µM (inconclusive) | IC50 [10]: 5.98 µM (active) | IC50 [11]: 7.43 µM (active) | IC50 [12]: 2.71 µM (active) | EC50 (BJ [13]): 3.33 µM (active) | EC50 (BJ [14]): 0.542 µM (inconclusive) | IC50 [15]: > 100 µM (inactive) | EC50 [16]: 6.19 µM (active) | EC50 (BJ [17]): 2.56 µM (active)

Cc1ccc(S(=O)(=O)N[C@H](C(=O)Oc2ccc3c(C(F)(F)F)cc(=O)oc3c2)c2ccccc2)cc1
IC50 (CHO): > 49.7 µM (inactive) | AC50 (Cytochrome P450 3A4): 25.1 µM (inconclusive) | IC50 (Beta Lactamase): 3.73 µM (active) | IC50 (Protein Rev): 26.9 µM (not active) | IC50 [18]: 3.89 µM (active)

CCC(C)Sc1ccc(-c2nc3cnccn3c2NC2CCCCC2)cc1 (stereo not given)
IC50 (CHO): 21.4 µM (inactive) | AC50 [19]: 3.63 µM (active) | IC50 (Beta Lactamase): 3.68 µM (active)

Cc1ccc(S(=O)(=O)NC(CC(C)C)C(=O)NCC(c2ccco2)N2CCCCC2)cc1 (stereo not given)
AC50 [20]: 24.5 µM (active) | AC50 (HEK293 [21]): 1.8 µM (active)

COc1cccc(-c2nc(NCc3ccccc3)c3ccccc3n2)c1O
AC50 [20]: 91 µM (active)
